Literature values, collected in patent US6660297B2, “Nutritional supplement to treat macular degeneration” (Bausch & Lomb Incorporated, priority 2001, dated 2003).
Like-named read-outs stand apart in the source and are kept apart here. Each block holds one compound with its values, some of them ahead of it.

Tests used:
[1] = 1.0 mg equal to 1 IU
[2] = in vivo
[3] = in vivo; remark: listed apart in the source
[4] = consumed daily
[5] = not given; remark: listed apart in the source
[6] = system: macular degeneration; settings: 80 mg of zinc versus placebo
[7] = in vivo; remark: listed apart in the source

Compound: CC(=O)Oc1c(C)c(C)c2c(c1C)CC[C@@](C)(CCC[C@H](C)CCC[C@H](C)CCCC(C)C)O2 (racemic) [dl-alpha tocopheryl acetate]
level at which no adverse effects have been observed [1]: ≤ 800 mg

Compound: CC1=C(/C=C/C(C)=C/C=C/C(C)=C/C=C/C=C(C)/C=C/C=C(C)/C=C/C2=C(C)CCCC2(C)C)C(C)(C)CCC1 [beta-carotene]
observed risk in individuals who receive 20 mg/day (male smokers): increased risk of lung cancer | observed risk in individuals who receive 20 mg/day (men with previous myocardial infarction): increased risk of fatal coronary heart attacks | dosage level with no observed adverse effects (healthy, non-smokers): ≤ 25 mg per day | efficiency of conversion to vitamin A in the body [2]: approximately 50%

Compound: [Cu] [copper]
effect on zinc absorption [3]: does not appear to have a deleterious effect

Compound: O=C1O[C@H]([C@@H](O)CO)C(O)=C1O [vitamin C, Ascorbic acid]
daily intake without any known adverse effects [4]: ≥ 1,000 mg

Compound: [O]=[Zn] [zinc oxide]
tolerability in the digestive system ([5]; in vivo): well tolerated

Compound: [Zn] [zinc]
tolerability ([5]; about 200 mg per day): well tolerated | side effects ([5]; about 200 mg per day, attributable to copper deficiency): potential side effects such as anemia | retarding macular degeneration changes [6]: significantly better than placebo

time stored vitamin E contributes to the total body pool [7]: up to one
Compound: vitamin E
